Assay results taken from the NIST ThermoML archive (doi:10.1016/j.jct.2012.12.007).

Experiment: xn = mol fraction of the nth substance listed
Conditions: 101.3 kPa, Liquid; for speed of sound: Sing-around technique in a fixed-path interferometer; for mass density: Vibrating tube method

CCOCCOCCOCC [diethylene glycol diethyl ether] + CO
Conditions | mass density [kg/m3] | speed of sound [m/s]
293.15 K, x2 = 0.1141 | 904.9 | 1259.4
293.15 K, x2 = 0.1553 | 904.05 | 1259.4
293.15 K, x2 = 0.1987 | 903.07 | 1259.2
293.15 K, x2 = 0.249 | 901.79 | 1258.6
293.15 K, x2 = 0.2972 | 900.38 | 1257.7
293.15 K, x2 = 0.3651 | 898.01 | 1255.9
293.15 K, x2 = 0.3841 | 897.27 | 1255.2
293.15 K, x2 = 0.4206 | 895.72 | 1253.7
293.15 K, x2 = 0.4696 | 893.32 | 1251.3
293.15 K, x2 = 0.5133 | 890.89 | 1248.6
293.15 K, x2 = 0.5624 | 887.61 | 1244.7
293.15 K, x2 = 0.6126 | 883.69 | 1240
293.15 K, x2 = 0.6545 | 879.81 | 1235.1
293.15 K, x2 = 0.698 | 875.07 | 1229
293.15 K, x2 = 0.7575 | 867.11 | 1218.6
293.15 K, x2 = 0.8037 | 859.25 | 1208.1
293.15 K, x2 = 0.8469 | 850.24 | 1196
293.15 K, x2 = 0.9023 | 835.03 | 1175.4
293.15 K, x2 = 0.9467 | 818.74 | 1153.6
298.15 K, x2 = 0.1296 | 900 | 1240
298.15 K, x2 = 0.1589 | 899.4 | 1239.9
298.15 K, x2 = 0.1917 | 898.67 | 1239.7
298.15 K, x2 = 0.2627 | 896.83 | 1239
298.15 K, x2 = 0.2904 | 896.02 | 1238.5
298.15 K, x2 = 0.3505 | 894.01 | 1237.1
298.15 K, x2 = 0.3925 | 892.41 | 1235.8
298.15 K, x2 = 0.4241 | 891.01 | 1234.4
298.15 K, x2 = 0.4639 | 889.09 | 1232.6
298.15 K, x2 = 0.5181 | 886.01 | 1229.3
298.15 K, x2 = 0.5637 | 882.97 | 1225.8
298.15 K, x2 = 0.6132 | 879.12 | 1221.2
298.15 K, x2 = 0.6207 | 878.44 | 1220.4
298.15 K, x2 = 0.6959 | 870.83 | 1210.9
298.15 K, x2 = 0.7434 | 864.68 | 1203
298.15 K, x2 = 0.8007 | 855.37 | 1190.8
298.15 K, x2 = 0.8481 | 845.46 | 1177.7
298.15 K, x2 = 0.9005 | 831.08 | 1158.6
298.15 K, x2 = 0.9476 | 813.97 | 1135.9
303.15 K, x2 = 0.1058 | 895.27 | 1221.5
303.15 K, x2 = 0.1571 | 894.27 | 1221.5
303.15 K, x2 = 0.1991 | 893.31 | 1221.4
303.15 K, x2 = 0.2309 | 892.58 | 1220.9
303.15 K, x2 = 0.2886 | 890.89 | 1220.4
303.15 K, x2 = 0.3249 | 889.71 | 1219.5
303.15 K, x2 = 0.3748 | 887.88 | 1218.2
303.15 K, x2 = 0.4216 | 885.91 | 1216.5
303.15 K, x2 = 0.473 | 883.4 | 1214.1
303.15 K, x2 = 0.5164 | 880.9 | 1211.5
303.15 K, x2 = 0.5681 | 877.47 | 1207.7
303.15 K, x2 = 0.6092 | 874.33 | 1204.1
303.15 K, x2 = 0.6548 | 870.07 | 1199
303.15 K, x2 = 0.6984 | 865.35 | 1193.3
303.15 K, x2 = 0.7448 | 859.28 | 1185.6
303.15 K, x2 = 0.8012 | 849.99 | 1173.9
303.15 K, x2 = 0.8484 | 840.19 | 1161.1
303.15 K, x2 = 0.9007 | 825.94 | 1142.6
303.15 K, x2 = 0.9489 | 808.25 | 1119.6
